Results on 1 compound are retold here after US11992552B2, “Geometric configurations for gastric residence systems” (Lyndra Therapeutics, Inc., priority 2015, dated 2024).

The nature of data set [1]: Behaviour over seven days in simulated gastric fluid. Format: physicochemical.
The nature of data set [2]: Shear-lap joint adhesion test (ASTM D3163) of enteric materials. Format: physicochemical. The following applies: plasticizer with Eudragit L100-55 (70%/30% enteric material/plasticizer), acetone as solvent, PCL sheets. From the text:
The influence of solvent (acetone, isopropyl alcohol, and ethyl acetate) and plasticizer (Eudragit NM, Plastoid B, Triethyl Citrate, and Triacetin) on the adhesion force of enteric materials were quantified using ASTM D3163, a standardized shear-lap joint mechanical test. The top figure A illustrates a side view of the experimental setup. Two 2-mm thick PCL (Mn 55 k) polymer sheets are adhered to an enteric material, Eudragit L100-55 (methyl methacrylate) combined with a plasticizer (in a 70%/30% enteric material/plasticizer ratio), using a solvent and pressure. The polymer sheets are then loaded into a tensile testing machine and pulled apart. The force/stress that causes the linker-polymer bond to break is recorded.

With `CC(=O)OCC(COC(C)=O)OC(C)=O` [Triacetin], the “release of plasticizer from a polymer formulation” value in data set [1] was “releases from a polymer formulation in a time-dependent manner over seven days”. Further, the adhesion force result in data set [2] was “greatest adhesion force”.
